Measurements from patent US20210284668A1, “GOLD (I)-PHOSPHINE 1,2,3-TRIAZOLE DERIVATIVES WITH ANTIBIOTIC PROPERTIES” (Centre National de la Recherche Scientifique, priority 2018, published 2021).
Values joined by “and” are separate entries in the source; they are usually repeats but may differ in a detail not shown here. Equal entries are not always repeated.

Tests used:
S. epidermidis ATCC14990 = experiment: MIC by microdilution, S. epidermidis ATCC14990; format: cell-based, Staphylococcus epidermidis; details: S. epidermidis ATCC14990 (MecA negative, wild-type), in duplicate
Method: (§1) The antibacterial profile of each derivative was evaluated by the standard microdilution method for susceptibility testing on 16 different strains, following the guidelines of CLSI. The selected panel included: • S. aureus ATCC25923 (MecA negative, wild-type) • S. aureus ATCC29213 (MecA negative, wild-type) • S. aureus ATCC700699 (MecA positive, glycopeptide resistant) • S. aureus ST20131365 (MecA positive, glycopeptide resistant) • S. epidermidis ATCC14990 (MecA negative, wild-type) • S. epidermidis ATCC35984 (MecA positive) • S. epidermidis ST20140436 (MecA positive, glycopeptide resistant) • S. epidermidis ST20150446 (MecA positive, glycopeptide resistant) • E. faecalis JH2-2 (wild-type) • E. faecalis UCN41 (VanA positive, glycopeptide resistant) • E. faecalis V583 (VanB positive, glycopeptide resistant) • E. faecium ATCC19434T (wild-type) • E. faecium BM4147 (VanA positive, glycopeptide resistant) • E. faecium AUS0004 (VanB positive, glycopeptide resistant) • E. coli ATCC25922 (wild-type) • Clostridium difficile ATCC9689 (wild-type)
(§2) Both series issued from the SAR study were evaluated for their antibacterial activity on a panel of characterized strains obtained from the French National Reference Centers for Staphylococci (Lyon, Pr. Fréderique Laurent) and for Enterococci (Caen, Pr. Vincent Cattoir), respectively. As shown in the following tables, both series contain very active compounds on multi-resistant Gram-positive bacteria (Minimal Inhibitory Concentrations lower than comparator antibiotic ampicillin). Furthermore, a very important antibacterial effect has been shown too on a strain of Clostridium difficile, a Gram-positive, spore-forming, bacillus responsible for post-antibiotic diarrhoae.
(§3) The antibacterial activity of test compounds was evaluated on a selected panel of Gram-positive (4 Staphylococcus aureus, 4 Staphylococcus epidermidis, 3 Enterococcus faecalis, 3 Enterococcus faecium, 1 Clostridium difficile) and Gram-negative strains (1 Escherichia coli, 1 Klebsiella pneumoniae, 1 Pseudomonas aeruginosa, 1 Acinetacter baumannii) with known features of antibiotic resistance (from wild-type susceptibility to multi-drug resistance). The Minimal Inhibitory Concentration (MIC) of test compounds was determined in duplicate by the microdilution method in 96-well microplates with a final volume of 100 μL per well and Mueller-Hinton broth as the growth medium, as recommended by the CLSI (Clinical and Laboratory Standards Institute, document Mo7-A10, USA).

E. faecium ATCC19434T = experiment: MIC by microdilution, E. faecium ATCC19434T; format: cell-based, Enterococcus faecium; parameters: unit not given here; details: E. faecium ATCC19434T (wild-type), in duplicate
Method: as §1, §2, §3

S. epidermidis ATCC35984 = experiment: MIC by microdilution, S. epidermidis ATCC35984; format: cell-based, Staphylococcus epidermidis; details: S. epidermidis ATCC35984 (MecA positive), in duplicate
Method: as §1, §2, §3

S. aureus ATCC700699 = experiment: MIC by microdilution, S. aureus ATCC700699; format: cell-based, Staphylococcus aureus; parameters: unit not given here; details: S. aureus ATCC700699 (MecA positive, glycopeptide resistant), in duplicate
Method: as §1, §2, §3

[1] = test system: panel of Gram-positive and Gram-negative strains; experiment: Antibacterial profile on the selected panel of strains; format: cell-based; details: summary of Tables 1-12
Method: as §1, §2, §3

E. faecium BM4147 = experiment: MIC by microdilution, E. faecium BM4147; format: cell-based, Enterococcus faecium; parameters: unit not given here; details: E. faecium BM4147 (VanA positive, glycopeptide resistant), in duplicate
Method: as §1, §2, §3

S. aureus ATCC25923 = experiment: MIC by microdilution, S. aureus ATCC25923; format: cell-based, Staphylococcus aureus; details: S. aureus ATCC25923 (MecA negative, wild-type), Mueller-Hinton broth, in duplicate
Method: as §1, §2, §3

E. faecalis UCN41 = experiment: MIC by microdilution, E. faecalis UCN41; format: cell-based, Enterococcus faecalis; parameters: unit not given here; details: E. faecalis UCN41 (VanA positive, glycopeptide resistant), in duplicate
Method: as §1, §2, §3

E. faecalis JH2-2 = experiment: MIC by microdilution, E. faecalis JH2-2; format: cell-based, Enterococcus faecalis; parameters: unit not given here; details: E. faecalis JH2-2 (wild-type), in duplicate
Method: as §1, §2, §3

SMILES | Minimal Inhibitory Concentration (MIC) (S. epidermidis ATCC14990) | Minimal Inhibitory Concentration (MIC) (E. faecium ATCC19434T) | Minimal Inhibitory Concentration (MIC) (S. epidermidis ATCC35984) | Minimal Inhibitory Concentration (MIC) (S. aureus ATCC700699) | antimicrobial / antibacterial activity (in words) [1] | Minimal Inhibitory Concentration (MIC) (E. faecium BM4147) | Minimal Inhibitory Concentration (MIC) (S. aureus ATCC25923) | Minimal Inhibitory Concentration (MIC) (E. faecalis UCN41) | Minimal Inhibitory Concentration (MIC) (E. faecalis JH2-2)
CC(=O)OC[C@H]1O[C@@H]([S-])[C@H](OC(C)=O)[C@@H](OC(C)=O)[C@@H]1OC(C)=O.CCP(CC)CC.[Au+] [Auranofin, reference compound] | ≤0.06 | ≤0.06 | ≤0.06 | ≤0.06 |  |  |  |  | 
C#CCOC(=O)N[C@@H](C(=O)N[C@@H]1C(=O)N2[C@@H]1SC(C)(C)[C@@H]2C(=O)O)c1ccccc1 [TMB2] |  |  |  |  | do not show an antibacterial activity |  |  |  | 
C[C@@H]1COc2c(N3CCN(C)CC3)c(F)cc3c(=O)c(C(=O)O)cn1c23 [TMB47, Ofloxacin, reference compound] | 0.25 | 4 | 0.125 | >8 | have antimicrobial activity | 1 | 0.25 | 2 | 2
CC[P+](CC)(CC)[Au-][c]1nn[nH]c1CN1C(=O)NC2CSC(CCCCC(=O)O)C21 (stereo not shown) [TMB48] | 0.125 | 1 | 0.125 | 0.5 | have antimicrobial activity | 2 | 0.25 | 1 | 1
CC[P+](CC)(CC)[Au-][c]1nn[nH]c1CNc1c(F)cc2c(=O)c(C(=O)O)cn3c2c1OCC3C (stereo not shown) [TMB49] | ≤0.06 | 0.5 and 1 | ≤0.06 | 0.25 | have antimicrobial activity | 1 | 0.125 | 1 | 1
CC(=O)O.CC[P+](CC)(CC)[Au-][c]1nn[nH]c1CCN [TMB50] | ≤0.06 | 0.25 | ≤0.06 | 0.125 | have antimicrobial activity | 0.25 | 0.125 | 0.5 | 0.25
C#CCNc1c(F)cc2c(=O)c(C(=O)O)cn3c2c1OCC3C (stereo not shown) [TMB51] | 4 | >8 | 2 | >8 | do not show an antibacterial activity | >8 | 2 | >8 | >8
CC[P+](CC)(CC)[Au-][c]1nn[nH]c1CNC(=O)NC(C(=O)O)c1ccccc1 (stereo not shown) [TMB52] | ≤0.06 | 0.25 | ≤0.06 | 0.125 | have antimicrobial activity | 0.25 |  | 0.25 | 0.25
